Test results from US20020004058A1, “Immunomodulating and antiinflammatory agent” (priority 1993, published 2002).

Key:
[1] = test system: anti-TNP antibody production; assay: Production of a TNP-specific antibody (anti-TNP IgM and IgG, ELISA) in mice sensitized with TNP-SRBC; assay type: in vivo, male BALB/c mice; settings: hypodermic injection four days from sensitization
Procedure: (§1) Trinitrobenzenesulfonic acid (TNBS) was dissolved in a physiological saline solution buffered with phosphoric acid to prepare a solution (40 mg/7.0 ml; pH 7.2) and then 1 ml of sheep red cell pellets was dropped thereinto with stirring. The mixture was allowed to stand at room temperature with stirring for several times under a light-shielding state and washed with a physiological saline solution three times. Then it was centrifuged at 3,000 rpm for five minutes and made into a solution of 5×10^9 cells/ml using a physiological saline solution.
TNP-SRBC (10^9 cells) was intraperitoneally administered to male BALB/c mice of six to eight weeks age and the anti-TNP antibody in serum was measured by an enzymatic immunoassay (ELISA) using a dinitrophenyl-bovine serum albumin (DNP-BSA).
(§2) The above-mentioned test system was used for checking the action of: (a) the histamine-added mouse gamma-globulin (150 mg/kg/day) (the product of the present invention), (b) cyclosporin A (100 mg/kg/day), (c) cyclophosphamide (100 mg/kg/day), (d) prednisolone ([…]) and (e) levamizole (5 mg/kg/day) towards the anti-TNP antibody production and to the TNP-specific DTH reaction. The drugs were administered by hypodermic injection four days from the sensitization with TNP-SRBC.

[2] = test system: TNP-specific DTH reaction; assay: TNP-specific DTH reaction (paw swelling) in mice sensitized with TNP-SRBC; assay type: in vivo, male BALB/c mice; settings: for Swelling in Paws After 24 Hrs.: difference right/left paw 24 hours after TNB induction on day 14; for Swelling in Paws After 24 Hrs. / Swelling in Paws After 48 Hrs.: drugs by hypodermic injection four days from sensitization; for Swelling in Paws After 48 Hrs.: difference right/left paw 48 hours after TNB induction on day 14; for action to the delayed type hypersensitivity (DTH), in words: hypodermic injection four days from sensitization
Procedure: as §1
The mice were sensitized with TNP-SRBC as described in paragraph (2) above. On the 14th day, 0.025 ml of TNB (4.7 mg/ml) was injected into the right hind paw to induce a TNP-specific DTH reaction. After 24 hours and 48 hours from the induction, the thickness of both paws was measured using a dial gauge. The difference in the thickness between the right and left paws was expressed as the intensity of the DTH reaction. […] This measuring system for the DTH reaction can be subjected to further tests using the same mice as in the case of the antibody production system of paragraph (2) above.
as §2

[3] = test system: eosinophils exudated to peritoneum; assay: Hypereosinophilic model induced by platelet activating factor (PAF); assay type: in vivo, female BALB/c mice
Procedure: A PAF (5 micrograms/200 microliters) was intraperitoneally injected into female BALB/c mice of six to eight weeks age to induce the reaction. After 24 hours from the induction, the peritoneal exudate cells were recovered and the number of the eosinophils were counted.

[4] = test system: eosinophils exudated to peritoneum; assay: Hypereosinophilic model induced by ragweed pollen antigen; assay type: in vivo, female BALB/c mice
Procedure: A ragweed pollen extract (which was diluted to an extent of 1,000 times using a physiological saline solution) was hypodermically injected into female BALB/c mice of six to eight weeks age for sensitization at the dose of 0.1 ml on the initiation day and on the first day and 0.2 ml on the sixth, eighth and fourteenth days. On the twentieth day, 0.2 ml of a 1,000 times diluted ragweed antigen was intraperitoneally injected into the mice to induce the reaction. On the 24th hour after the induction, the peritoneal exudate cells were recovered and subjected to a Giemsa staining and the total cell numbers, number of eosinophils, number of neutrophils and number of mononuclear cells were counted. As a result, the number of the eosinophils peaked 24 hours after the induction. […] The above-mentioned hypereosinophilic models were used for checking the action towards the hypereosinophilicity by a hypodermic injection of the product of the present invention. Thus, histamine-added mouse gamma-globulin, at a dose of 3 mg/mouse/day twice a week for three weeks was administered until the induced day. Further tests were conducted by administering the corresponding amount of each of histamine (dihydrochloride) and mouse gamma-globulin which are the constituting components of the histamine-added mouse gamma-globulin.

| Structure (SMILES) | action upon anti-TNP IgG antibody production (FIG. 2), in words [1] | action upon anti-TNP IgM antibody production (FIG. 1), in words [1] | Swelling in Paws After 24 Hrs. [2] | Swelling in Paws After 48 Hrs. [2] | action to the delayed type hypersensitivity (DTH), in words [2] | Number of Exudated Eosinophils to Peritoneum ([3]; PAF 5 micrograms i.p., 24 hours after induction) | suppressive action upon hypereosinophilicity induced by PAF, in words ([3]; same manner of administration as ragweed model) | Number of Eosinophils Exudated to Peritoneum ([4]; ragweed antigen induced, 24 h after induction, product 3 mg/mouse/day s.c. twice a week for three weeks, components in corresponding amount, cyclosporin A 100 mg/kg/day three days) | suppression of eosinophil exudation into peritoneum, ragweed pollen antigen model, in words ([4]; twice a week for three weeks until the induced day) |
| --- | --- | --- | --- | --- | --- | --- | --- | --- | --- |
| O=P1(N(CCCl)CCCl)NCCCO1 (stereo not shown) [Cyclophosphamide, cyclophosphamide] | significantly suppressed | significantly suppressed | 13.3 ± 2.1 ×10^−2 mm | 15.8 ± 2.4 ×10^−2 mm | clear suppressive actions | – | – | – | – |
| Cl.Cl.NCCc1c[nH]cn1 [Histamine, histamine (dihydrochloride)] | – | – | – | – | – | 2.2 ± 0.8 ×10^5 cells | not observed | 3.4 ± 0.6 ×10^5 cells | not observed |
| c1ccc([C@H]2CN3CCSC3=N2)cc1 [Lavamizole, levamizole] | did not significantly affect | did not significantly affect | 40.0 ± 6.5 ×10^−2 mm | 20.0 ± 5.0 ×10^−2 mm | no significant effect | – | – | – | – |
| C[C@]12C=CC(=O)C=C1CC[C@@H]1[C@@H]2[C@@H](O)C[C@@]2(C)[C@H]1CC[C@]2(O)C(=O)CO [Prednisolone, prednisolone] | did not significantly affect | did not significantly affect | 30.0 ± 5.6 ×10^−2 mm | 8.3 ± 3.3 ×10^−2 mm | weak suppressive action | – | – | – | – |
